The source made the active and inactive calls. No cut-off for these calls is given here.
Columns and labels:
RAW264.7 [1] = test: Anti-inflammatory activity in mouse RAW264.7 cells assessed as inhibition of LPS-induced NO production preincubated for 1 hr followed by LPS addition and measured after 24 hrs; assay type: functional, cell-based
RAW264.7 [2] = test: Anti-inflammatory activity in mouse RAW264.7 cells assessed as reduction in LPS-induced TNFalpha level preincubated for 2 hrs followed by LPS addition and measured after 18 hrs by ELISA; assay type: functional, cell-based
[3] = Cytotoxicity against mouse RAW264 cells assessed as reduction in cell viability at 25 uM incubated for 24 hrs by MTT assay; assay type: cell-based
RAW264.7 [4] = test: Anti-inflammatory activity in mouse RAW264.7 cells assessed as reduction in LPS-induced iNOS protein level at 6.25 to 12.5 microM by Western blot analysis; assay type: functional, cell-based
RAW264.7 [5] = test: Anti-inflammatory activity in mouse RAW264.7 cells assessed as reduction in LPS-induced COX2 protein level at 6.25 to 12.5 microM by Western blot analysis; assay type: functional, cell-based
RAW264.7 [6] = test: Anti-inflammatory activity in mouse RAW264.7 cells assessed as reduction in LPS-induced IL6 level preincubated for 2 hrs followed by LPS addition and measured after 18 hrs by ELISA; assay type: functional, cell-based
[7] = Cytotoxicity against mouse RAW264 cells assessed as reduction in cell viability up to 25 uM incubated for 24 hrs by MTT assay; assay type: cell-based

SMILES	inhibition (RAW264.7 [1])	Activity (RAW264.7 [1])	Activity (RAW264.7 [2])	Activity [3]	Activity (RAW264.7 [4])	Activity (RAW264.7 [5])	Activity (RAW264.7 [6])	Activity [7]
COC(=O)[C@@H](N)CCCNC(=N)N[N+](=O)[O-]	Active							
C/C=C1/C(=O)C[C@H]2[C@@H]3CCC4=CC(=O)CC[C@]4(C)[C@H]3CC[C@]12C [E-GUGGULSTERONE]		Dose-dependent effect	Dose-dependent effect	Toxic	Active	Active	Dose-dependent effect	
C/C=C1\C(=O)C[C@H]2[C@@H]3CCC4=CC(=O)CC[C@]4(C)[C@H]3CC[C@]12C [GUGGULSTERONE]		Dose-dependent effect						Non-Toxic

From ChEMBL document CHEMBL4616612, “Synthesis and inhibitory effect of cis-guggulsterone on lipopolysaccharide-induced production of nitric oxide in macrophages” (Bioorg Med Chem Lett, 2020)
